Entries after “also recorded” stand apart in the source; their conditions may differ.
Key:
[1] = system: differentiated PC12 cells; assay: Time-lapse recording of mitochondrial motility and morphology in neurites of differentiated PC12 cells (exogenous agents); details: for mitochondrial motility, increase: nimodipine 5 μM together with AP5 50 μM, with or without apoE forms
Neuro-2a cells = assay: MTT cell survival assay of Neuro-2a cells transiently transfected with apoE4 cDNA constructs; format: cell-based, mouse; details: expressed in Neuro-2a cells, MTT assay 48 h after transfection
Protocol: Cell Culture and Transfection. […] ApoE4 expression levels were determined by anti-apoE western blotting of cell lysates and media. […] Thus, the results are not due to overexpression.
Cell Survival. […] Cell survival was estimated with an MTT colorimetric assay (52) 48 h after transfection.

[2] = system: rat primary hippocampal neurons; assay: Dendritic spine density (EGFP-β-actin, confocal microscopy) in primary hippocampal neurons; format: cell-based; details: apoE 7.5 μg/ml, 24 h
Protocol: (§1) Cortices or hippocampi from neonatal rat pups were dissected and treated with papain (10 units ml^−1, 30 min; Worthington Biochemical, Lakewood, N.J.) and the with trypsin inhibitor (10 mg ml^−1, 15 min). Dissociated neurons were plated on 12-mm glass coverslips (Fisher Scientific, Hampton, N.H.) (8×10^5 cells per cm^2) coated with poly-L-lysine. After 2 h, cells were transferred into Neurobasal medium supplemented with B27, 1 mM L-glutamine, and 100 μg/ml penicillin/streptomycin (Invitrogen). Neurons were routinely transfected after 10 days in culture and used for experiments 5-7 days after transfection. Cells were maintained in a humidified incubator with 5% CO2 at 37° C.
(§2) Confocal Microscopy. Cultured primary neurons treated with various forms of apoE were fixed for 20 min in ice-cold 4% paraformaldehyde in PBS and mounted with Vectashield (Vector Laboratories Burlingame, Calif.). Digital images of EGFP and dsRed fluorescence in primary neurons were collected on a laser-scanning confocal microscope with a Bio-Rad Radiance 2000 scanhead (Bio-Rad, Hercules, Calif.) mounted on a BX60 microscope (Olympus, Melville, N.Y.) with a 60× oil objective.
To assess the effect of exogenous apoE on dendritic spine density, rat primary cortical and hippocampal neurons, which had been cultured for 14-17 days in vitro, were incubated with different forms of apoE (7.5 μg/ml) for 24 h. […]

[3] = system: dendrites of primary cortical neurons; assay: Number, size and occupancy of mitochondria in dendrites of primary cortical neurons; format: cell-based, rat; details: primary neurons treated with apoE
[4] = system: rat primary cortical neurons; assay: Dendritic spine density (EGFP-β-actin, confocal microscopy) in primary cortical neurons; format: cell-based
Protocol: as §1
Neuronal activation and inhibition.
as §2
To assess the effect of exogenous apoE on dendritic spine density, rat primary cortical and hippocampal neurons, which had been cultured for 14-17 days in vitro, were incubated with different forms of apoE (7.5 μg/ml) for 24 h. Four to six days before the experiment, the cells were transfected with EGFP-tagged β-actin (EGFP-β-actin), a cytoskeletal protein that is abundant in dendritic spines. […] Other measures of neuronal complexity (e.g., dendritic field and length of dendritic extensions) were not affected by any form of apoE. […] FIGS. 12A and 12B. […] (a) Confocal micrographs of synaptic EGFP-β-actin fluorescence in dendrites of rat primary cortical and hippocampal neurons (16 days in vitro) incubated for 24 h with or without (control) various forms of apoE (7.5 μg/ml). Scale bar=5 μm. (b) Number of spines per μm of dendritic extension. […]

[5] = repetitive depolarization with KCl 90 mM, 4×3 min
[6] = cortical neurons, apoE 7.5 μg/ml, 24 h

## NC(CCCP(=O)(O)O)C(=O)O (centres unmarked) [AP5, 2-amino-5-phosphonovalerate]
[1]; 24 h
  mitochondrial motility, increase: about 30%

## [Cl-].[K+] [KCl]
[1]; [5]
  average moving velocity (moving distance/15 min) in the anterograde direction: drastically reduced
  mitochondrial moving velocity (moving distance/time moving): unaltered; also recorded: did not affect
  net moving distance in the anterograde direction: drastically reduced
  retrograde motility (toward the soma): No significant changes
[1]; repetitive depolarizations with KCl (4×, 90 mM)
  mitochondrial index, reduced: 22.5%

## NC1=N[C@H](O)[C@H]2[C@H]3O[C@]4(O)O[C@@H]([C@@H](O)[C@@]2(N1)[C@@H]4O)[C@]3(O)CO [TTX, tetrodotoxin]
[1]
  mitochondrial dynamics: increased
  mitochondrial index: without affecting; also recorded: not affected

## COCCOC(=O)C1=C(C)NC(C)=C(C(=O)OC(C)C)C1c1cccc([N+](=O)[O-])c1 (centres unmarked) [nimodipine]
[1]; 24 h
  mitochondrial motility, increase: about 30%

## L279Q: full-length WT apoE4 with single mutation L279Q
Neuro-2a cells
  neurotoxicity: as neurotoxic as apoE4(1-272)

## Q284A: full-length WT apoE4 with single mutation Q284A
Neuro-2a cells
  neurotoxicity: as neurotoxic as apoE4(1-272)

## apoE4: Human apolipoprotein E4 isoform, 299 amino acids (SEQ ID NO:1); recombinant or expressed
[2]
  density of dendritic spines, decrease compared with controls: 19±5%
  density of dendritic spines, reduction compared with apoE3: 28±4%
[3]
  number of mitochondria at dendritic spines compared with apoE3-treated cells or controls: many fewer
[1]; apoE 7.5 μg/ml 24 h, then repetitive depolarizations with KCl
  extent of the mitochondrial motility response to neuronal activation, reduced to: 30%
[1]; exogenous apoE 7.5 μg/ml, 24 h
  average mitochondrial length: significantly reduced
  retrograde velocity / retrograde direction motility: unaffected
[4]; [6]
  density of dendritic spines, decrease compared with controls: 13±5%
  density of dendritic spines, reduction compared with apoE3: 27±5%
[4]; primary cortical neurons, apoE 7.5 μg/ml 24 h, repetitive KCl depolarization
  spinal density in response to neuronal activation, reduced as compared to controls: 48±11%

Reference: patent publication US8512958B2, “Methods of identifying agents that modulate mitochondrial function” (The J. David Gladstone Institutes, priority 2005, dated 2013)
